pIC50: −log10 of the molar value. Values after ≈ are worked out from the molar mass of the structure shown.
Key:
[1] = biological target: Voltage-gated inwardly rectifying potassium channel KCNH2 (Homo sapiens, UniProt Q12809); experiment: Inhibition of human ERG channel in HEK293 cells by voltage-gated patch clamp technique; type: cell-based
[2] = biological target: DNA gyrase (Staphylococcus aureus, UniProt P0A0K8+P20831); experiment: Inhibition of Staphylococcus aureus DNA gyrase; type: protein-complex assay
[3] = test system: Staphylococcus aureus; experiment: Antibacterial activity against fluoroquinolone-resistant Staphylococcus aureus 1095; type: functional
[4] = Inhibition of human DNA topoisomerase 4
[5] = test system: Staphylococcus aureus; experiment: Antibacterial activity against Staphylococcus aureus 1146; type: functional
[6] = Inhibition of Staphylococcus aureus DNA topoisomerase 4
[7] = test system: Staphylococcus aureus; experiment: Antibacterial activity against fluoroquinolone-resistant Staphylococcus aureus harboring DNA gyrase M121K mutant; type: functional
[8] = test system: Staphylococcus aureus; experiment: Antibacterial activity against fluoroquinolone-resistant Staphylococcus aureus 1095 infected in mouse assessed as survival compound administered 0.5 to 4 hrs post-infection measured after 7 days; type: functional; conditions: read-out: PD50
[9] = test system: Streptococcus pyogenes; experiment: Antibacterial activity against Streptococcus pyogenes; type: functional
[10] = test system: Staphylococcus aureus; experiment: Antibacterial activity against Staphylococcus aureus; type: functional
[11] = Oral bioavailability in rat at 5 mg/kg; type: ADME, organism-based; conditions: in vivo
[12] = Clearance in rat at 2 mg/kg, iv and 5 mg/kg, po; type: ADME, organism-based; conditions: in vivo
[13] = Volume of distribution at steady state in rat at 2 mg/kg, iv and 5 mg/kg, po; type: ADME, organism-based; conditions: in vivo, read-out: Vdss
[14] = test system: Staphylococcus aureus; experiment: Antibacterial activity against fluoroquinolone-resistant Staphylococcus aureus harboring DNA gyrase D83N mutant; type: functional
[15] = Inhibition of Streptococcus pneumoniae DNA gyrase
[16] = Inhibition of Streptococcus pneumoniae topoisomerase 4
[17] = test system: Streptococcus pyogenes; experiment: Antibacterial activity against Streptococcus pyogenes 02C0203 infected in mouse assessed as survival compound administered 0.5 to 4 hrs post-infection measured after 7 days; conditions: 02C0203, in Mus musculus, read-out: PD50

Compound | pIC50 [1] | pIC50 [2] | MIC [3] [µg/mL] | pIC50 [4] | MIC [5] [µg/mL] | pIC50 [6] | MIC [7] [µg/mL] | ED50 [8] [mg/kg] | MIC90 [9] [µg/mL] | MIC90 [10] [µg/mL] | bioavailability [11] [%] | clearance [12] [mL/min/kg] | Vd [13] [L/kg] | MIC [14] [µg/mL] | pIC50 [15] | pIC50 [16] | ED50 [17] [mg/kg]
COc1ccc2ncc(F)c([C@@H](O)CC[C@@H]3CCN(CCSc4cccs4)C[C@@H]3C(=O)O)c2c1 | 4.63 | 5.81 | 0.125 (≈ 0.248 µM) | < 3.70 | ≤ 0.063 | 4.52 | 64 (≈ 127 µM) | 22.1 | 0.25 (≈ 0.495 µM) | 0.125 (≈ 0.248 µM) | 31.5 | 32.7 | 2.55 | 32 (≈ 63.4 µM) | – | – | –
COc1ccc2nccc([C@@H](O)CC[C@@H]3CCN(CCSc4cccs4)C[C@@H]3C(=O)O)c2c1 | – | 5.62 | 0.1 (≈ 0.205 µM) | < 3.70 | 0.068 (≈ 0.14 µM) | 4.07 | > 64 | 34.7 | – | – | – | – | – | > 64 | 5.23 | 5.18 | –
COc1ccc2nccc([C@@H](O)CC[C@@H]3CCN(C4CC(c5cc(F)ccc5C(F)(F)F)C4)C[C@@H]3C(=O)O)c2c1 (some centres not stated) | – | 5.03 | 0.5 (≈ 0.892 µM) | – | 0.25 (≈ 0.446 µM) | 4.22 | 32 (≈ 57.1 µM) | – | – | – | – | – | – | 16 (≈ 28.5 µM) | – | – | –
COc1ccc2nccc(C(O)CC[C@@H]3CCN(C/C=C/c4cc(F)ccc4F)C[C@@H]3C(=O)O)c2c1 (some centres not stated) | – | 5.12 | 0.5 (≈ 1.01 µM) | 4.00 | 0.25 (≈ 0.503 µM) | 5.05 | 13 (≈ 26.2 µM) | – | – | – | – | – | – | 10 (≈ 20.1 µM) | 5.20 | 5.43 | –
COc1ccc2nccc([C@H](O)CC[C@@H]3CCN(C4CC(c5ccccc5)C4)C[C@@H]3C(=O)O)c2c1 (some centres not stated) | – | – | – | < 3.70 | 0.23 (≈ 0.485 µM) | – | – | – | – | – | – | – | – | – | 4.66 | 4.52 | –
COc1ccc2nccc([C@@H](O)CC[C@@H]3CCN(C4CC(c5ccccc5F)C4)C[C@@H]3C(=O)O)c2c1 (some centres not stated) | – | 4.90 | ≤ 0.0625 | – | ≤ 0.0625 | 4.43 | > 64 | – | – | – | – | – | – | 64 (≈ 130 µM) | – | – | –
COc1ccc2nccc([C@@H](O)CC[C@@H]3CCN(C4CC(c5cccc(F)c5)C4)C[C@@H]3C(=O)O)c2c1 (some centres not stated) | – | 5.81 | 0.125 (≈ 0.254 µM) | – | ≤ 0.0625 | 4.42 | 32 (≈ 65 µM) | – | – | – | – | – | – | 32 (≈ 65 µM) | – | – | –
COc1ccc2nccc([C@@H](O)CC[C@@H]3CCN(C4CC(c5c(F)cccc5F)C4)C[C@@H]3C(=O)O)c2c1 (some centres not stated) | – | 5.53 | 0.25 (≈ 0.49 µM) | – | 0.125 (≈ 0.245 µM) | < 4.00 | 23 (≈ 45 µM) | 16.3 | 1 (≈ 1.96 µM) | 0.25 (≈ 0.49 µM) | – | 39.7 | 3 | 32 (≈ 62.7 µM) | – | – | 22
COc1ccc2nccc([C@@H](O)CC[C@@H]3CCN(C4CC(c5cc(F)ccc5F)C4)C[C@@H]3C(=O)O)c2c1 (some centres not stated) | 5.00 | 5.52 | 0.5 (≈ 0.979 µM) | – | 0.25 (≈ 0.49 µM) | 5.02 | 5.7 (≈ 11.2 µM) | 28.2 | 1 (≈ 1.96 µM) | 0.25 (≈ 0.49 µM) | 47 | 43.9 | 1.3 | 10 (≈ 19.6 µM) | – | – | 32.5
COc1ccc2nccc([C@@H](O)CC[C@@H]3CCN(C4CC(c5ccc(F)cc5F)C4)C[C@@H]3C(=O)O)c2c1 (some centres not stated) | – | 5.03 | 0.25 (≈ 0.49 µM) | – | ≤ 0.0625 | 4.22 | 64 (≈ 125 µM) | – | – | – | – | – | – | 64 (≈ 125 µM) | – | – | –
COc1ccc2nccc([C@@H](O)CC[C@@H]3CCN(C4CC(c5c(F)ccc(F)c5F)C4)C[C@@H]3C(=O)O)c2c1 (some centres not stated) | – | 5.81 | ≤ 0.0625 | – | ≤ 0.0625 | 4.45 | 16 (≈ 30.3 µM) | – | – | – | – | – | – | 8 (≈ 15.1 µM) | – | – | –
COc1ccc2nccc([C@@H](O)CC[C@@H]3CCN(C4CC(c5ccc(F)c(F)c5F)C4)C[C@@H]3C(=O)O)c2c1 (some centres not stated) | – | 5.50 | 0.5 (≈ 0.946 µM) | – | ≤ 0.0625 | 3.96 | > 64 | – | – | – | – | – | – | > 64 | – | – | –
COc1ccc2nccc([C@@H](O)CC[C@@H]3CCN(C4CC(c5cc(F)cc(F)c5)C4)C[C@@H]3C(=O)O)c2c1 (some centres not stated) | 5.14 | 5.81 | 0.25 (≈ 0.49 µM) | – | ≤ 0.0625 | 4.82 | 8 (≈ 15.7 µM) | – | – | – | – | – | – | 8 (≈ 15.7 µM) | – | – | –
COc1ccc2nccc([C@@H](O)CC[C@@H]3CCN(C4CC(c5cc(F)c(Cl)cc5F)C4)C[C@@H]3C(=O)O)c2c1 (some centres not stated) | – | 5.33 | 1 (≈ 1.83 µM) | – | 0.25 (≈ 0.459 µM) | 3.92 | > 64 | – | – | – | – | – | – | > 64 | – | – | –
COc1ccc2nccc([C@@H](O)CC[C@@H]3CCN(C4CC(c5cc(F)c(OC)cc5F)C4)C[C@@H]3C(=O)O)c2c1 (some centres not stated) | – | 4.30 | > 64 | – | 32 (≈ 59.2 µM) | 3.62 | > 64 | – | – | – | – | – | – | > 64 | – | – | –
COc1ccc2nccc([C@@H](O)CC[C@@H]3CCN(C4CC(c5cc(Cl)ccc5F)C4)C[C@@H]3C(=O)O)c2c1 (some centres not stated) | – | 5.81 | ≤ 0.0625 | – | ≤ 0.0625 | 4.48 | 64 (≈ 121 µM) | – | – | – | – | – | – | 64 (≈ 121 µM) | – | – | –
COc1ccc2nccc([C@@H](O)CC[C@@H]3CCN(C4CC(c5cc(F)cc(F)c5F)C4)C[C@@H]3C(=O)O)c2c1 (some centres not stated) | 4.51 | 5.81 | 0.125 (≈ 0.236 µM) | – | ≤ 0.0625 | 5.08 | 8 (≈ 15.1 µM) | – | – | – | – | – | – | 8 (≈ 15.1 µM) | – | – | –
COc1ccc2nccc([C@@H](O)CC[C@@H]3CCN(C4CC(c5cccc(F)c5F)C4)C[C@@H]3C(=O)O)c2c1 (some centres not stated) | – | 5.81 | < 0.0625 | – | ≤ 0.0625 | 4.52 | 32 (≈ 62.7 µM) | – | – | – | – | – | – | 32 (≈ 62.7 µM) | – | – | –
COc1ccc2nccc([C@@H](O)CC[C@@H]3CCN(C4CC(c5c(OC)ccc(F)c5F)C4)C[C@@H]3C(=O)O)c2c1 (some centres not stated) | – | 5.81 | 2 (≈ 3.7 µM) | – | 0.25 (≈ 0.462 µM) | 4.35 | > 64 | – | – | – | – | – | – | 64 (≈ 118 µM) | – | – | –
COc1ccc2nccc([C@@H](O)CC[C@@H]3CCN(C4CC(c5c(F)ccc(F)c5OC)C4)C[C@@H]3C(=O)O)c2c1 (some centres not stated) | – | 5.50 | ≤ 0.0625 | – | ≤ 0.0625 | 4.60 | > 64 | – | – | – | – | – | – | 64 (≈ 118 µM) | – | – | –
COc1ccc2nccc([C@@H](O)CC[C@@H]3CCN(C4CC(c5cc(F)cc(F)c5OC)C4)C[C@@H]3C(=O)O)c2c1 (some centres not stated) | – | 5.20 | 2 (≈ 3.7 µM) | – | 0.5 (≈ 0.925 µM) | 4.22 | 64 (≈ 118 µM) | – | – | – | – | – | – | 32 (≈ 59.2 µM) | – | – | –
COc1ccc2nccc([C@@H](O)CC[C@@H]3CCN(C/C=C/c4ccccc4)C[C@@H]3C(=O)O)c2c1 | – | 5.33 | 1 (≈ 2.17 µM) | – | 0.5 (≈ 1.09 µM) | < 3.70 | > 64 | – | – | – | – | – | – | > 64 | – | – | –
COc1ccc2nccc(C(O)CC[C@@H]3CCN(C[C@@H]4C[C@H]4c4ccccc4)C[C@@H]3C(=O)O)c2c1 (mixture of isomers) | – | – | – | 3.82 | 1 | – | – | – | – | – | – | – | – | – | 4.30 | 5.12 | –
O=C(O)c1cn(C2CC2)c2cc(N3CCNCC3)c(F)cc2c1=O [CIPROFLOXACIN] | – | – | – | – | – | – | – | – | 0.5 (≈ 1.51 µM) | > 64 | – | – | – | – | – | – | –

Reference: ChEMBL document CHEMBL2380208, “Novel quinoline derivatives as inhibitors of bacterial DNA gyrase and topoisomerase IV” (Bioorg Med Chem Lett, 2013)
